Experimental data as given in patent publication US20230040279A1, “COMPOSITIONS HAVING PESTICIDAL UTILITY AND PROCESSES RELATED THERETO” (CORTEVA AGRISCIENCE LLC, priority 2019, published 2023).

Columns and labels:
[1] = system: Green Peach Aphid (Myzus persicae, MYZUPE); experiment: Green Peach Aphid (GPA) foliar spray bioassay on cabbage seedlings; format: in vivo; conditions: for Mean LC50 PPM: cabbage seedlings, live aphids counted three days after treatment, Abbott-corrected % control; for % (percent increase in the Mean LC50 required compared to F1): relative to F1
Procedure: (§1) F1, CE1, CE2, CE3, and CE4 (2 mg each) were each dissolved in 2 mL of acetone/methanol (1:1) solvent, forming stock solutions of 1000 ppm for each test molecule. The stock solutions were diluted 5× with 0.025% Tween® 20 in water to obtain test solutions at 200 ppm for each test molecule. Subsequent 4× dilutions, in water containing 0.025% Tween® 20 and 10% acetone/methanol (1:1), were used to generate the desired concentrations for dose responses. A minimum of 5 concentrations of each test molecule were used for each assay.
Test solutions of Formula One and the Comparative Examples, prepared as described above, were tested against GPA using the following procedure.
Cabbage seedlings grown in 3-inch pots, with 2-3 small (3-5 cm) true leaves, were used as test substrate. The seedlings were infested with 20-50 GPA (wingless adult and nymph stages) one day prior to chemical application. Four pots with individual seedlings were used for each treatment. A hand—held aspirator—type sprayer was used for spraying a solution to both sides of […] leaves until runoff. Reference plants (solvent check) were sprayed with the diluent only (0.025% Tween® 20 and 10% acetone/methanol (1:1) in water). Treated plants were held in a holding room for three days at approximately 25° C. and ambient relative humidity (RH) prior to grading. Evaluation was conducted by counting the number of live aphids per plant under a microscope three days after treatment. Percent control was measured using Abbott's correction formula (W. S. Abbott, “A Method of Computing the Effectiveness of an Insecticide” J. Econ. Entomol. 18 (1925), pp.265-267) as follows:
(§2) Corrected % Control=100*(X−Y)/X
where X=No. of live aphids on solvent check plants and Y=No. of live aphids on treated plants. Bioassay 2: Sweetpotato Whitefly (Bemisia tabaci, BEMITA) (“SPW”).

[2] = system: Sweetpotato Whitefly (Bemisia tabaci, BEMITA); experiment: Sweetpotato Whitefly (SPW) foliar spray bioassay on cotton seedlings; format: in vivo; conditions: for Mean LC50 PPM: cotton seedlings sprayed at crawler emergence, 2-3 instar nymphs counted 7-9 days after treatment, Abbott-corrected % control; for % (percent increase in the Mean LC50 required compared to F1): relative to F1
Procedure: as §1
Test solutions of Formula One and the Comparative Examples, prepared as described above, were tested against SPW using the following procedure.
Cotton seedlings grown in 3-inch pots, pruned so that only one true leaf remained, were used as test substrate. Adult B. tabaci were allowed to colonize these plants and lay eggs for 24 hours after which all adults were removed from the plants using compressed air. Plants were monitored for egg development and, when crawler emergence was underway (>25% emergence based on visual examination using a microscope), the plants were sprayed using the test solutions and methods described above for green peach aphids (GPA). Treated plants were held in a holding room at approximately 25° C. and ambient relative humidity (RH) prior to grading. Evaluation was conducted by counting the number of developed 2-3 instar nymphs per plant under a microscope 7-9 days after treatment. Percent control was measured using Abbott's correction formula (W. S. Abbott, “A Method of Computing the Effectiveness of an Insecticide” J. Econ. Entomol. 18 (1925), pp.265-267) as follows:
as §2
where X=No. of live nymphs on solvent check plants and Y=No. of live nymphs on treated plants.

| Compound | Mean LC50 PPM [1] [PPM] | % (percent increase in the Mean LC50 required compared to F1) [1] [%] | Mean LC50 PPM [2] [PPM] | % (percent increase in the Mean LC50 required compared to F1) [2] [%] |
| --- | --- | --- | --- | --- |
| CS(=O)(=O)CC(=O)Nc1cn(-c2cccnc2)nc1Cl [CE3, N-(3-chloro-1-(pyridin-3-yl)-1H-pyrazol-4-yl)-2-(methylsulfonyl)acetamide] | 0.05 | −29 | 25.35 | 421 |
| CC(C)(C(=O)Nc1cn(-c2cccnc2)nc1Cl)S(C)(=O)=O [CE4, N-(3-chloro-1-(pyridin-3-yl)-1H-pyrazol-4-yl)-2-methyl-2-(methylsulfonyl)propanamide] | 2.17 | 3000 | 9.72 | 100 |
| CC(C(=O)Nc1cn(-c2cccnc2)nc1Cl)S(C)(=O)=O (stereo not drawn) [Molecule F1, N-(3-chloro-1-(pyridin-3-yl)-1H-pyrazol-4-yl)-2-(methylsulfonyl)propanamide] | 0.07 |  | 4.87 |  |
| CN(C(=O)CS(C)(=O)=O)c1cn(-c2cccnc2)nc1Cl [CE2, N-(3-chloro-1-(pyridin-3-yl)-1H-pyrazol-4-yl)-N-methyl-2-(methylsulfonyl)acetamide] | 0.52 | 643 | 21.01 | 331 |
| CC(C(=O)N(C)c1cn(-c2cccnc2)nc1Cl)S(C)(=O)=O (stereo not drawn) [CE1, N-(3-chloro-1-(pyridin-3-yl)-1H-pyrazol-4-yl)-N-methyl-2-(methylsulfonyl)propanamide] | 0.29 | 314 | 5.61 | 15 |
